Results on 2 compounds are retold here after US6352703B1, “Compositions and methods for detecting and killing termites” (Board of Supervisors of Louisiana State University and …, priority 1997, dated 2002).

Data set [1] has as its system Mucor spp. fungus. As to the kind of experiment: Antifungal filter paper disk test, trial 1 (Sabouraud dextrose agar). The format is cell-based. How it is done:
Mucor was isolated from a Formosan termite nest in our laboratory, a nest originally collected from a cottonwood tree in New Orleans, La. The fungus comprised a white mat that covered large areas of the nest that had been exposed to air and water. Fungus was scraped from the nest and suspended in distilled, de-ionized water with a Pasteur pipette. This suspension was streaked on Sabouraud dextrose agar (“SDA”) (Difco Laboratories, Detroit, Mich.) in 100×15 mm plates containing 20 mL SDA. Pure cultures were obtained from individual colonies on these plates as needed. Cultures were maintained on SDA plates in a 27° C. incubator without light until used.
Filter paper disks (Whatman #1, 1.5 cm) were treated with naphthalene, butylated hydroxytoluene (BHT), dioctyl phthalate, or adipic dioctyl ester, at rates of 2 μg, 20 μg, or 200 μg, dissolved in 100 μL hexane. Controls were treated with hexane alone. For each treatment, just prior to testing for antifungal properties, 1 mL of the hexane solution and ten filter paper disks were placed in a vial, and N2 was used to evaporate the hexane.
A suspension was prepared by scraping Mucor conidia (spores) from the culture plates, and mixing into distilled, deionized water with a Pasteur pipette. A thin layer of this suspension was spread over the surface of each of 130 SDA plates by placing each plate onto an inoculation turntable (Fisher Scientific, Hampton, N.H.), pipetting 0.2 mL of the suspension into the center of the plate, spinning the turntable, and spreading the suspension onto the agar with a bent glass rod. The plates were allowed to dry for two hours. A treated filter paper disk was then placed in the center of each plate (10 plates/treatment), and the plates were incubated at 27° C. The extent to which each filter paper disk was covered by fungus was determined by visual inspection (by the method described in greater detail below) after four, five, and six days.
(§1) Fungal growth on each filter paper disk was recorded by making tracings of the disks, inking in areas with visible fungal growth. The fraction of each disk covered by fungus was measured by making photocopy enlargements of these drawings, cutting out the enlarged disks, weighing the entire circle, cutting out the inked areas of the circle (corresponding to fungal growth), and weighing the latter. The fraction of each circle covered with fungus was then calculated as the ratio of these weights. (The weight of the photocopy toner was negligible.)
(§2) Coverage of filter paper disks was analyzed by the ANOVA procedure (SAS Institute, Version 6.11, Cary, N.C.). Tukey's Studentized Range (HSD) Test was used for comparison of mean separations (α=0.05).

Data set [2] relates to Mucor spp. fungus. As to the kind of experiment: Antifungal filter paper disk test, trial 2 (cornmeal agar, sealed plates). The format is cell-based. The protocol: A second trial was conducted with filter papers treated with naphthalene, BHT, or 2,6-di-t-butyl-4-methyl-phenol (“DBP”). A fungal suspension was prepared as in the first trial. Spore concentrations were determined with a counting chamber (Petroff-Hauser, Hauser Scientific Partnership, Horsham, Pa.). Concentrations were adjusted to approximately 10^7 spores/mL. In the first trial fungus grew on SDA quickly, forming a thick mat that soon filled the entire petri dish. Therefore, in the second trial cornmeal agar (CMA, Difco Laboratories, Detroit, Mich.) was used to slow the growth of the fungus during the six-day observation period. A thin layer of the spore suspension was spread over the surface of each of 24 cornmeal agar plates using a turntable and bent glass rod, as previously described.
(§3) Filter paper disks were treated with naphthalene, BHT, or DBP at rates of 2 μg, 20 μg, or 200 μg, prepared as in the first trial. On each plate were placed four filter paper disks spaced equidistant from one another (one disk containing each of the three application rates of one of the test compounds, and one disk containing only the hexane control). Each plate was then covered and sealed with parafilm to reduce the release of volatile compounds. The concentration of naphthalene in the headspace was 0.04 μg/cm^3; except in trial 3 below, in which the concentration was 34.6 μg/cm^3, about 700 times the concentration we have observed in termite nest materials. The growth of fungus on and around each filter paper disk was recorded three, four, and five days after treatment. The experiment was then repeated, increasing the rates of naphthalene, BHT, and DBP to 200 μg, 600 μg, and 1000 μg (trial 3).
as §1, §2

The subject of data set [3] is imported red fire ant, Solenopsis invicta Buren. As to the kind of experiment: Effect of naphthalene on ants (tolerance comparison). In kind it is in vivo. Conditions: naphthalene concentrations causing no visible effect on termites.
Data set [4] deals with Mucor spp. fungus. As to the kind of experiment: Antifungal filter paper disk test, trial 3 (cornmeal agar, sealed plates, increased rates). The format is cell-based. How it is done:
A second trial was conducted with filter papers treated with naphthalene, BHT, or 2,6-di-t-butyl-4-methyl-phenol (“DBP”). A fungal suspension was prepared as in the first trial. Spore concentrations were determined with a counting chamber (Petroff-Hauser, Hauser Scientific Partnership, Horsham, Pa.). Concentrations were adjusted to approximately 10^7 spores/mL. In the first trial fungus grew on SDA quickly, forming a thick mat that soon filled the entire petri dish. […] A thin layer of the spore suspension was spread over the surface of each of 24 cornmeal agar plates using a turntable and bent glass rod, as previously described.
as §3, with “The growth of fungus on and around each filter paper disk was recorded three, four, and five days after treatment.” left out
as §1, §2

Another data set has as its system C. formosanus. Conditions: in vivo.
A further data set deals with Formosan termites. The experiment in a line: Feeding bioassay. To be noted: ergosterol standard. In kind it is in vivo, Coptotermes formosanus. The protocol: Sterols identified include 3-β-dihydrocholesterol; (24s)-stigmast-5-en-3-ol; and methyl(3-β,5-α)ergostan-3-ol. […] The bioassay was conducted according to the general procedures of U.S. application Ser. No. 08/243,950, filed May 17, 1994.

Setting [5] is: trial 2, 0 μg disk (hexane only) on the same sealed plate as the compound's treated disks.
The mark [6] stands for this setting: trial 3, 0 μg disk (hexane only) on the same sealed plate as the compound's treated disks.

Turning to `c1ccc2ccccc2c1` [Naphthalene, naphthalene], the “Fraction Covered, Day 4 (mean percentage of filter paper disk surface covered by fungus)” value with Mucor spp. fungus [1] (trial 1, rate 2 μg per disk) is listed as 71%; in the data set on Mucor spp. fungus [1] (trial 1, rate 20 μg per disk), 64%; in the data set on Mucor spp. fungus [1] (trial 1, rate 200 μg per disk), 90%; with Mucor spp. fungus [2] (setting [5]), 99%; with Mucor spp. fungus [2] (trial 2, rate 2 μg per disk), 99%; in the data set on Mucor spp. fungus [2] (trial 2, rate 20 μg per disk), 98%. Moreover, the “Fraction Covered, Day 4 (mean percentage of filter paper disk surface covered by fungus)” value in the data set on Mucor spp. fungus [2] (trial 2, rate 200 μg per disk) amounted to 100%; in the data set with Mucor spp. fungus [4] (setting [6]) it was 0%; in the data set with Mucor spp. fungus [4] (trial 3, rate 200 μg per disk), 0%; with Mucor spp. fungus [4] (trial 3, rate 600 μg per disk) it was 0%; with Mucor spp. fungus [4] (trial 3, rate 1000 μg per disk), 0%. Moreover, the “Fraction Covered, Day 5 (mean percentage of filter paper disk surface covered by fungus)” value in the data set with Mucor spp. fungus [1] (trial 1, rate 2 μg per disk) turned out to be 86%; with Mucor spp. fungus [1] (trial 1, rate 20 μg per disk) it was 97%; with Mucor spp. fungus [1] (trial 1, rate 200 μg per disk), 92%; with Mucor spp. fungus [2] (setting [5]) it was 95%; in the data set with Mucor spp. fungus [2] (trial 2, rate 2 μg per disk), 100%; with Mucor spp. fungus [2] (trial 2, rate 20 μg per disk), 99%. For the same compound, the “Fraction Covered, Day 5 (mean percentage of filter paper disk surface covered by fungus)” value in the data set with Mucor spp. fungus [2] (trial 2, rate 200 μg per disk) worked out at 100%; in the data set with Mucor spp. fungus [4] (setting [6]), 0%; in the data set on Mucor spp. fungus [4] (trial 3, rate 200 μg per disk) it was 0%; in the data set on Mucor spp. fungus [4] (trial 3, rate 600 μg per disk), 0%; in the data set on Mucor spp. fungus [4] (trial 3, rate 1000 μg per disk) it was 0%. Further, the “Fraction covered, Day 6 (mean percentage of filter paper disk surface covered by fungus)” value was found to be 98% in the data set on Mucor spp. fungus [1] (trial 1, rate 2 μg per disk); 100% in the data set with Mucor spp. fungus [1] (trial 1, rate 20 μg per disk); 100% in the data set on Mucor spp. fungus [1] (trial 1, rate 200 μg per disk). The “Fraction Covered, Day 3 (mean percentage of filter paper disk surface covered by fungus)” value with Mucor spp. fungus [2] (setting [5]) worked out at 98%; in the data set with Mucor spp. fungus [2] (trial 2, rate 2 μg per disk), 100%; with Mucor spp. fungus [2] (trial 2, rate 20 μg per disk) it was 98%; in the data set on Mucor spp. fungus [2] (trial 2, rate 200 μg per disk), 100%; with Mucor spp. fungus [4] (setting [6]), 0%; in the data set with Mucor spp. fungus [4] (trial 3, rate 200 μg per disk), 0%. In addition, the “Fraction Covered, Day 3 (mean percentage of filter paper disk surface covered by fungus)” value is 0% with Mucor spp. fungus [4] (trial 3, rate 600 μg per disk) and 0% with Mucor spp. fungus [4] (trial 3, rate 1000 μg per disk). Moreover, the Effect on ants result in data set [3] is on record as “paralyzed”. The “Inhibition of growth of the fungus, comparison among compounds” value with Mucor spp. fungus [4] (of the five compounds tested) is reported as “most effective at inhibiting the growth of this fungus”. Also, the “Fungal growth on filter paper disks” value with Mucor spp. fungus [4] (trial 3, all naphthalene treatments (0-1000 μg)) is “no fungal growth”. The “Fungal growth on treated disks” value with Mucor spp. fungus [4] (trial 3, eight days after treatment) is given as “still free of fungus”; in the data set on Mucor spp. fungus [4] (trial 3, fourth day), “still no growth”. In the data set on C. formosanus, the “Tolerance of C. formosanus to naphthalene compared with S. invicta” value is “significantly higher tolerance”. Moreover, the “Visible effect on termites” value in the data set with C. formosanus is “no visible effect”.
As to `CC(C)[C@@H](C)/C=C/[C@@H](C)[C@H]1CC[C@H]2C3=CC=C4C[C@@H](O)CC[C@]4(C)[C@H]3CC[C@]12C` [ergosterol], in the data set on Formosan termites, the Feeding stimulation entry was “stimulated the feeding”.
